What was measured:
[1] = Loading of emulsions with xenon (xenon uptake, stability); type: physicochemical; settings: 10% by weight fatty emulsion saturated with xenon
Description: The loading capacity of the abovementioned perfluorocarbon preparation is considerable. Xenon loads of e.g. 1 to 10 ml/ml have been achieved by the simplest means. For example, these preparations can be loaded with inert gas simply by having the gas passed through them.
Thus, even by the simplest means, xenon can be dissolved or dispersed in concentrations of 0.2 to 10 ml or more per ml of fatty emulsion (concentrations relate to standard conditions, i.e. 20° C. and normal pressure). The xenon concentration depends on a large number of factors, especially the concentration of the fat. As a rule the preparations will be “loaded” with xenon up to the saturation limit. However, it is also possible for very small concentrations to be present, provided, for example, that a pharmacological activity can still be observed on intravenous administration. In the case of a 10% fatty emulsion, it is easily possible to reach xenon concentrations of 0.3 to 2 ml of xenon per ml of fatty emulsion. It is of course also possible to reach higher values, e.g. 3, 4, 5, 6 or 7 ml of xenon per ml of fatty emulsion. These fatty emulsions are sufficiently stable, at least in gas-tight containers, for the xenon not to be released as a gas over conventional storage periods. […]

patient = assay: Intravenous infusion of xenon-containing emulsion in a patient; settings: in vivo
Description: To achieve a subanaesthetic action, the xenon load in the medicinal preparation need only be about 0.2 to 0.3 ml of xenon per ml of emulsion. This means that an analgesic and/or sedative action is assured for preparations with a xenon content of at least 0.2 ml/ml emulsion. An anti-inflammatory action is already observed at 0.1 ml/ml emulsion. […] When working with a highly laden perfluorocarbon emulsion containing 2 to 4 ml of xenon per ml of emulsion, for example, 20 ml of this emulsion are infused over 30 sec, for example, in order to induce anaesthesia. An infusion rate of at least 7.5 ml/min is sufficient to maintain the anaesthesia. A total of 470 ml of emulsion would thus be used for a 1-hour operation. With a xenon content of 3 ml of xenon per ml of emulsion, this corresponds to a xenon volume of 1410 ml, i.e. a fraction of the xenon consumed in inhalation anaesthesia (based on a body weight of 85 kg, this would be a consumption of 16.6 ml per kg in one hour).

In the case of [Xe] [xenon, Xenon], the “Xenon content at saturation” value [1] is reported as “about 0.3 ml of xenon per ml of emulsion”, the “Xenon content at which an anti-inflammatory action is observed” value (patient) is reported as 0.1 ml/ml emulsion and the “Xenon content that assures an analgesic and/or sedative action” value (patient) is reported as “at least 0.2 ml/ml emulsion”.

From patent publication US6511453B2, “Device for controlled anaesthesia, analgesia and/or sedation” (priority 1997, dated 2003)
